PubChem BioAssay AID687006 (The Scripps Research Institute Molecular Screening Center, 2013)
Blank lines part the entries; values can stand above or below the compound they belong to. Active and inactive are the calls of the source.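 The calls were made as follows: active = over 50% breakup of the Hsp90 and CDC37 protein complex, measured by pull-down and western blot; inactive = complex breakup under 10%.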

Target: Hsp90 co-chaperone Cdc37 (Homo sapiens) (UniProt Q16543)
Assay: Hsp90/CDC37 chaperone complex stability in cells – cell-based, chemiluminescence western blot, co-immunoprecipitation, mechanism study for selective HSP90 inhibitor project, late-stage follow-up (AID 687006)
Conditions: MCF7 cells, Hsp90 co-IP CDC37 western blot, 24 h, stronger effect = higher value

Chain of Hsp90 co-chaperone Cdc37 (Homo sapiens) (Q16543 whole entry, looked up): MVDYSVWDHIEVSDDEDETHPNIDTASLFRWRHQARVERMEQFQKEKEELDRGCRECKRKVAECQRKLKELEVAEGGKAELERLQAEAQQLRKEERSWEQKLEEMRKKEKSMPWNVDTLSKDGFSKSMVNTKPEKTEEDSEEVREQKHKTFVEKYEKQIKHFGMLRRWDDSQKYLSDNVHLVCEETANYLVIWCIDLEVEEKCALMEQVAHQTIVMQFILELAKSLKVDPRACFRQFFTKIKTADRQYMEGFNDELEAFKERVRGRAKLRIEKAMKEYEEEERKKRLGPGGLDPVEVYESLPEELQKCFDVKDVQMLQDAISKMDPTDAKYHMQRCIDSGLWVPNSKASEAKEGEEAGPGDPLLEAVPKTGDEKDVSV

SMILES: O=C(NCc1ccco1)c1coc(=O)c(Br)c1
complex disruption (high dose (five times the growth IC50) 24 µM, low dose (half the growth IC50) 2.4 µM): < 10% (inactive)

SMILES: CCCCCCCCOc1ccc(NC(=O)c2coc(=O)c(Br)c2)cc1
complex disruption (high dose (five times the growth IC50) 64.5 µM, low dose (half the growth IC50) 6.5 µM): > 50%

SMILES: O=C(Nc1ccccc1I)c1coc(=O)c(Br)c1
complex disruption (high dose (five times the growth IC50) 147 µM, low dose (half the growth IC50) 14.7 µM): < 10% (inactive)

SMILES: CC(NC(=O)c1coc(=O)c(Br)c1)C1C2CCC3CC(C2)CC31 (centres undefined)
complex disruption (high dose (five times the growth IC50) 9 µM, low dose (half the growth IC50) 0.9 µM): < 10% (inactive)

SMILES: CC(C)CNC(=O)c1coc(=O)c(Br)c1
complex disruption (high dose (five times the growth IC50) 37.5 µM, low dose (half the growth IC50) 3.8 µM): > 50%

SMILES: O=C(NCc1cccnc1)c1coc(=O)c(Br)c1
complex disruption (high dose (five times the growth IC50) 17.5 µM, low dose (half the growth IC50) 1.8 µM): < 10% (inactive)

SMILES: COc1ccc(NC(=O)c2coc(=O)c(Br)c2)cc1
complex disruption (high dose (five times the growth IC50) 12 µM, low dose (half the growth IC50) 1.2 µM): > 50%

SMILES: CC(=O)c1ccc(NC(=O)c2coc(=O)c(Br)c2)cc1
complex disruption (high dose (five times the growth IC50) 53.5 µM, low dose (half the growth IC50) 5.4 µM): > 50%

The next lines start with the values.

complex disruption (high dose (five times the growth IC50) 60.5 µM, low dose (half the growth IC50) 6.1 µM): > 50%
SMILES: COc1ccc(NC(=O)c2ccc(NC(=O)c3coc(=O)c(Br)c3)cc2)cc1

complex disruption (high dose (five times the growth IC50) 44.5 µM, low dose (half the growth IC50) 4.5 µM): < 10% (inactive)
SMILES: Cc1cc(NC(=O)c2coc(=O)c(Br)c2)ccc1C(C)C

complex disruption (high dose (five times the growth IC50) 114 µM, low dose (half the growth IC50) 11.4 µM): < 10% (inactive)
SMILES: CCCCOc1cccc(NC(=O)c2coc(=O)c(Br)c2)c1

complex disruption (high dose (five times the growth IC50) 17 µM, low dose (half the growth IC50) 1.7 µM): < 10% (inactive)
SMILES: O=C(Nc1ccc(F)cc1)c1coc(=O)c(Br)c1

complex disruption (high dose (five times the growth IC50) 136.5 µM, low dose (half the growth IC50) 13.7 µM): < 10% (inactive)
SMILES: Cc1cccc(NC(=O)c2coc(=O)c(Br)c2)n1

complex disruption (high dose (five times the growth IC50) 10.5 µM, low dose (half the growth IC50) 1.1 µM): < 10% (inactive)
SMILES: O=C(NCCc1ccc(F)cc1)c1coc(=O)c(Br)c1
